pIC50: −log10 of the molar value. A value given as a limit tells only on which side of the number the result lay.

The target in experiment [1] is T1, β5c (chymotrypsin-like activity) (Homo sapiens, UniProt P20618+P28074).
T1 construct: protease activity associated with the proteasome complex in cultured cells; endogenous in cells; host or cells: Ramos cells
Kind of experiment: Cell-Based Proteasome subunit activity/selectivity assay, β5c, substrate (WLA)2Rh110. The following applies: Ramos cells; substrate (WLA)2Rh110 (β5c); highest concentration tested 20 μM; read-out: Ic50:ramos:rh110-(wla)2. The source says: (§1) Cell-Based Proteasome Activity/Selectivity Assay
(§2) The Cell-Based Proteasome subunit activity/selectivity assay was a panel of 5 fluorogenic assays that independently measured the activity of β5c or β 5i (chymotrypsin-like activity), β 2c/2i (trypsin-like), and β 1c or β 1i (caspase-like) protease activity associated with the proteasome complex in cultured cells. Specifically, the following substrates were used for respective subunit activities: β 1i (PAL)2Rh110, β 1c: (LLE)2 Rh110, β 2c/2i: (KQL)2Rh110, β 5c: (WLA)2Rh110, β 5i: (ANW)2Rh110. The following procedure was followed:
(§3) Added 0.5 μl of 100× 4-fold serial diluted test compounds or DMSO to each well. Highest concentration of compound tested was 20 μM, thus compound serial dilution started from […]. Incubated for 30 minutes at 37° C. Then equilibrated at room temperature for 15 minutes. […] Shaked for one minute @ 700 rpm. Incubated for 120 min at room temperature. Then read the plates with an Envision multilabel plate reader (PerkinElmer) with 500 nm excitation/519 nm emission.

In another experiment the target is T2, β 1i (caspase-like) (Homo sapiens, UniProt P28065+P40306).
T2 construct: protease activity associated with the proteasome complex in cultured cells; endogenous in cells; host or cells: Ramos cells
Briefly: Cell-Based Proteasome subunit activity/selectivity assay, β1i, substrate (PAL)2Rh110. The following applies: Ramos cells; substrate (PAL)2Rh110 (β1i); highest concentration tested 20 μM; read-out: Ic50:ramos:rh110-(pal)2.
From the text: as §1, §2, §3

The subject of the next experiment is β 2c/2i (trypsin-like). Briefly: Cell-Based Proteasome subunit activity/selectivity assay, β2c/2i, substrate (KQL)2Rh110. The following applies: Ramos cells; substrate (KQL)2Rh110 (β2c/2i); highest concentration tested 20 μM.
From the text: as §1, §2, §3

Experiment [2] deals with T3, β 5i (chymotrypsin-like activity) (Homo sapiens, UniProt P20618+P28062).
T3 construct: protease activity associated with the proteasome complex in cultured cells; endogenous in cells; host or cells: Ramos cells
Kind of experiment: Cell-Based Proteasome subunit activity/selectivity assay, β5i, substrate (ANW)2Rh110. Particulars: Ramos cells; substrate (ANW)2Rh110 (β5i); highest concentration tested 20 μM; read-out: Ic50:ramos:ac-(anw)2-r110.
From the text: as §1, §2, §3

Another experiment has as its target T4, β 1c (caspase-like) (Homo sapiens, UniProt P28072+Q99436).
T4 construct: protease activity associated with the proteasome complex in cultured cells; endogenous in cells; host or cells: Ramos cells
Briefly: Cell-Based Proteasome subunit activity/selectivity assay, β1c, substrate (LLE)2Rh110. The following applies: Ramos cells; substrate (LLE)2Rh110 (β1c); highest concentration tested 20 μM; read-out: Ic50:ramos:rh110-(lle)2.
From the text: as §1, §2, §3

Take `COc1ccc(C(=O)NCCn2cc(C(=O)NCc3ccc(Cl)cc3)nn2)c(OC)c1OC` [Example 5, 1-[2-(2,3,4-Trimethoxy-benzoylamino)-ethyl]-1H-[1,2,3]triazole-4-carboxylic acid 4-chloro-benzylamide]: the pIC50 in experiment [1] is ≤ 4.70; at β 1i (caspase-like) it was ≤ 4.70; with β 2c/2i (trypsin-like), ≤ 4.70; in experiment [2] it was 5.19; on β 1c (caspase-like), ≤ 4.70.

Consider `N#CC(NC(=O)c1cn(CCNC(=O)c2ccc(C(F)(F)F)cc2F)nn1)c1ccc(C2CC2)cc1` (stereo not shown) [Example 76, 1-[2-(2-Fluoro-4-trifluoromethyl-benzoylamino)-ethyl]-1H-[1,2,3]triazole-4-carboxylic acid [cyano-(4-cyclopropyl-phenyl)-methyl]-amide], for which the pIC50 in experiment [1] was ≤ 4.70; at β 1i (caspase-like), ≤ 4.70; in the experiment on β 2c/2i (trypsin-like), ≤ 4.70; in experiment [2] it was 7.30; on β 1c (caspase-like), ≤ 4.70.

Turning to `COc1ccc(C(=O)NCCn2cc(C(=O)NC(C#N)c3ccc(C(F)(F)F)cc3)nn2)c(F)c1` (stereo not shown) [Example 74, 1-[2-(2-Fluoro-4-methoxy-benzoylamino)-ethyl]-1H-[1,2,3]triazole-4-carboxylic acid [cyano-(4-trifluoromethyl-phenyl)-methyl]-amide], the pIC50 in experiment [1] was ≤ 4.70; at β 1i (caspase-like), ≤ 4.70; in the experiment with β 2c/2i (trypsin-like), ≤ 4.70; in experiment [2] it was 5.76; on β 1c (caspase-like), ≤ 4.70.

As to `CCc1ccc(C(C#N)NC(=O)c2cn(CCNC(=O)c3ccc(F)cc3OC)nn2)cc1` (stereo not shown) [Example 36, 1-[2-(4-Fluoro-2-methoxy-benzoylamino)-ethyl]-1H-[1,2,3]triazole-4-carboxylic acid [cyano-(4-ethyl-phenyl)-methyl]-amide], the pIC50 in experiment [1] was ≤ 4.70; at β 1i (caspase-like), ≤ 4.70; with β 2c/2i (trypsin-like), ≤ 4.70; in experiment [2], 5.69; on β 1c (caspase-like) it was ≤ 4.70.

Take `CCc1ccc(C(C#N)NC(=O)c2cn(CCNC(=O)c3ccc(OC)nc3OC)nn2)cc1` (stereo not shown) [Example 35, N-[2-(4-{[Cyano-(4-ethyl-phenyl)-methyl]-carbamoyl}-[1,2,3]triazol-1-yl)-ethyl]-2,6-dimethoxy-nicotinamide]: the pIC50 in experiment [1] is 5.26; at β 1i (caspase-like), ≤ 4.70; in the experiment with β 2c/2i (trypsin-like), ≤ 4.70; in experiment [2], 6.31; on β 1c (caspase-like), ≤ 4.70.

With `CCc1ccc(C(C#N)NC(=O)c2cn(CCN3Cc4cc(OC)ccc4C3=O)nn2)cc1` (stereo not shown) [Example 47, 1-[2-(5-Methoxy-1-oxo-1,3-dihydro-isoindol-2-yl)-ethyl]-1H-[1,2,3]triazole-4-carboxylic acid [cyano-(4-ethyl-phenyl)-methyl]-amide], the pIC50 in experiment [1] was 5.12; at β 1i (caspase-like), ≤ 4.70; with β 2c/2i (trypsin-like) it was ≤ 4.70; in experiment [2] it was 5.83; on β 1c (caspase-like), ≤ 4.70.

Regarding `CCc1ccc(C(C#N)NC(=O)c2cn(CCNC(=O)c3cccc(-c4ccccc4)n3)nn2)cc1` (stereo not shown) [Example 15, 6-Phenyl-pyridine-2-carboxylic acid [2-(4-{[cyano-(4-ethyl-phenyl)-methyl]-carbamoyl}-[1,2,3]triazol-1-yl)-ethyl]-amide], the pIC50 in experiment [1] is 5.11; at β 1i (caspase-like), ≤ 4.70; in the experiment on β 2c/2i (trypsin-like), ≤ 4.70; in experiment [2] it was 5.83; on β 1c (caspase-like) it was 4.70.

With `COc1ccc(C(=O)NCCn2cc(C(=O)N[C@@H](Cc3ccccc3)C(=O)C(=O)NCc3ccccc3)nn2)c(OC)c1OC` [Example 88, 1-[2-(2,3,4-Trimethoxy-benzoylamino)-ethyl]-1H-[1,2,3]triazole-4-carboxylic acid ((S)-1-benzyl-2-benzylcarbamoyl-2-oxo-ethyl)-amide], the pIC50 is 5.07 in experiment [1]; ≤ 4.70 on β 1i (caspase-like); ≤ 4.70 with β 2c/2i (trypsin-like); 6.34 in experiment [2]; ≤ 4.70 on β 1c (caspase-like).

On to `COc1cc(C(F)(F)F)ccc1C(=O)NCCn1cc(C(=O)NC(C#N)c2ccc(C(F)(F)F)cc2)nn1` (stereo not shown) [Example 72, 1-[2-(2-Methoxy-4-trifluoromethyl-benzoylamino)-ethyl]-1H-[1,2,3]triazole-4-carboxylic acid [cyano-(4-trifluoromethyl-phenyl)-methyl]-amide], for which the pIC50 in experiment [1] is ≤ 4.70; on β 1i (caspase-like), ≤ 4.70; in the experiment on β 2c/2i (trypsin-like) it was ≤ 4.70; in experiment [2], 6.28; at β 1c (caspase-like) it was ≤ 4.70.

Regarding `COC(=O)[C@H](Cc1cc2ccccc2[nH]1)NC(=O)c1cn(CCNC(=O)c2ccc(C(F)(F)F)cc2F)nn1` [Example 84, (S)-2-({1-[2-(2-Fluoro-4-trifluoromethyl-benzoylamino)-ethyl]-1H-[1,2,3]triazole-4-carbonyl}-amino)-3-(1H-indol-2-yl)-propionic acid methyl ester], the pIC50 in experiment [1] was ≤ 4.70; at β 1i (caspase-like), ≤ 4.70; in the experiment on β 2c/2i (trypsin-like) it was ≤ 4.70; in experiment [2], 6.79; at β 1c (caspase-like) it was ≤ 4.70.

In the case of `COc1ccc(C(=O)NCCn2cc(C(=O)NC(C#N)c3ccc(C(C)C)cc3)nn2)c(OC)c1OC` (stereo not shown) [Example 61, 1-[2-(2,3,4-Trimethoxy-benzoylamino)-ethyl]-1H-[1,2,3]triazole-4-carboxylic acid [cyano-(4-isopropyl-phenyl)-methyl]-amide], the pIC50 in experiment [1] is ≤ 4.70; at β 1i (caspase-like), ≤ 4.70; in the experiment on β 2c/2i (trypsin-like), ≤ 4.70; in experiment [2], 5.88; at β 1c (caspase-like), 4.77.

Take `CCc1ccc(C(C#N)NC(=O)c2cn(CCNC(=O)c3ccc(OC)c(OC)c3OC)nn2)cc1` (single isomer, unassigned) [Example 50]: the pIC50 is ≤ 4.70 in experiment [1]; ≤ 4.70 at β 1i (caspase-like); ≤ 4.70 in the experiment on β 2c/2i (trypsin-like); 7.24 in experiment [2]; ≤ 4.70 at β 1c (caspase-like).

As for `COc1ccc(C(=O)NCCn2cc(C(=O)NC(C#N)c3ccc(Br)cc3)nn2)c(OC)c1OC` (stereo not shown) [Example 54, 1-[2-(2,3,4-Trimethoxy-benzoylamino)-ethyl]-1H-[1,2,3]triazole-4-carboxylic acid [(4-bromo-phenyl)-cyano-methyl]-amide], the pIC50 was ≤ 4.70 in experiment [1]; ≤ 4.70 on β 1i (caspase-like); ≤ 4.70 in the experiment on β 2c/2i (trypsin-like); 7.00 in experiment [2]; ≤ 4.70 on β 1c (caspase-like).

As for `N#CC(NC(=O)c1cn(CCNC(=O)c2ccc(C(F)(F)F)cc2F)nn1)c1ccc(C(F)(F)F)cc1` (stereo not shown) [Example 73, 1-[2-(2-Fluoro-4-trifluoromethyl-benzoylamino)-ethyl]-1H-[1,2,3]triazole-4-carboxylic acid [cyano-(4-trifluoromethyl-phenyl)-methyl]-amide], the pIC50 in experiment [1] was ≤ 4.70; at β 1i (caspase-like), ≤ 4.70; in the experiment with β 2c/2i (trypsin-like) it was ≤ 4.70; in experiment [2], 6.74; on β 1c (caspase-like) it was ≤ 4.70.

In the case of `COc1ccc(C(=O)NCCn2cc(C(=O)NC(C#N)c3ccc4c(c3)OCO4)nn2)c(OC)c1OC` (stereo not shown) [Example 53, 1-[2-(2,3,4-Trimethoxy-benzoylamino)-ethyl]-1H-[1,2,3]triazole-4-carboxylic acid (benzo[1,3]dioxol-5-yl-cyano-methyl)-amide], the pIC50 is ≤ 4.70 in experiment [1]; ≤ 4.70 at β 1i (caspase-like); ≤ 4.70 in the experiment with β 2c/2i (trypsin-like); 6.23 in experiment [2]; ≤ 4.70 on β 1c (caspase-like).

For `COc1cc(OC(F)(F)F)ccc1C(=O)NCCn1cc(C(=O)NC(C#N)c2ccc(C(F)(F)F)cc2)nn1` (stereo not shown) [Example 71, 1-[2-(2-Methoxy-4-trifluoromethoxy-benzoylamino)-ethyl]-1H-[1,2,3]triazole-4-carboxylic acid [cyano-(4-trifluoromethyl-phenyl)-methyl]-amide], the pIC50 in experiment [1] is ≤ 4.70; at β 1i (caspase-like), ≤ 4.70; with β 2c/2i (trypsin-like), ≤ 4.70; in experiment [2] it was 5.25; on β 1c (caspase-like) it was ≤ 4.70.

Consider `CCc1ccc(C(C#N)NC(=O)c2cn(CCNC(=O)c3ccccc3COC)nn2)cc1` (stereo not shown) [Example 33, 1-[2-(2-Methoxymethyl-benzoylamino)-ethyl]-1H-[1,2,3]triazole-4-carboxylic acid [cyano-(4-ethyl-phenyl)-methyl]-amide], for which the negative logarithm of the IC50 (pIC50) in experiment [1] was ≤ 4.70; on β 1i (caspase-like), ≤ 4.70; with β 2c/2i (trypsin-like), ≤ 4.70; in experiment [2], 5.74; on β 1c (caspase-like), ≤ 4.70.

The values above are taken from US20150299143A1, “SUBSTITUTED TRIAZOLE AND IMIDAZOLE COMPOUNDS” (HOFFMANN-LA ROCHE INC., priority 2012, published 2015).
